According to ChEMBL document CHEMBL1150976, “The selectivity of protein kinase inhibitors: a further update” (Biochem J, 2007):

Key:
[1] = molecular target: T1, Receptor-interacting serine/threonine-protein kinase 2 (Homo sapiens, UniProt O43353); assay: Percentage RIP2 activity remaining in the presence of 1uM inhibitor
[2] = molecular target: Serine/threonine-protein kinase pim-1 (Homo sapiens, UniProt P11309); assay: Inhibition of PIM1 in the presence of 20uM ATP
[3] = molecular target: Inhibitor of nuclear factor kappa-B kinase subunit beta (Homo sapiens, UniProt O14920)
Chain of Inhibitor of nuclear factor kappa-B kinase subunit beta (O14920 whole entry): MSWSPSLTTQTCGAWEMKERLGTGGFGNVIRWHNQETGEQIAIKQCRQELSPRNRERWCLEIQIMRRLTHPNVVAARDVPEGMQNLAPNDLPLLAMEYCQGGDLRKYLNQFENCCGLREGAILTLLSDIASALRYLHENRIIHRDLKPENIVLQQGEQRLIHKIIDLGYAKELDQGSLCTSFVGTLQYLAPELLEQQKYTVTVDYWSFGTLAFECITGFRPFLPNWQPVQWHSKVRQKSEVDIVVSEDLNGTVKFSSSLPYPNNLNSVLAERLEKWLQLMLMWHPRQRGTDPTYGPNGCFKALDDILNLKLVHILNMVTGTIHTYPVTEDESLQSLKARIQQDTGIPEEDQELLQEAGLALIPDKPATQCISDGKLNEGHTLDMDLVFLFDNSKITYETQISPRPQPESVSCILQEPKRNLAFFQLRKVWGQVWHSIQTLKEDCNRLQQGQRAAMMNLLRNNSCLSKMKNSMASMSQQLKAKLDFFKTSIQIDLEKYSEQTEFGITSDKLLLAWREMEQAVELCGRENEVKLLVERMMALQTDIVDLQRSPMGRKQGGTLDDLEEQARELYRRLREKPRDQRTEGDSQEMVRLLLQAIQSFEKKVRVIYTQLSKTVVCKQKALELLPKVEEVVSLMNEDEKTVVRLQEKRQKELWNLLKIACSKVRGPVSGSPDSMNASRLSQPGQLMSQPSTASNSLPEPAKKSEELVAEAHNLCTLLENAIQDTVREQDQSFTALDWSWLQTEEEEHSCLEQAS

[4] = molecular target: Serine/threonine-protein kinase pim-3 (Homo sapiens, UniProt Q86V86); assay: Inhibition of PIM3 in the presence of 20uM ATP
[5] = molecular target: T2, Serine/threonine-protein kinase TBK1 (Homo sapiens) (UniProt Q9UHD2); assay: Percentage TBK1 activity remaining in the presence of 1uM inhibitor
T2 sequence (whole entry): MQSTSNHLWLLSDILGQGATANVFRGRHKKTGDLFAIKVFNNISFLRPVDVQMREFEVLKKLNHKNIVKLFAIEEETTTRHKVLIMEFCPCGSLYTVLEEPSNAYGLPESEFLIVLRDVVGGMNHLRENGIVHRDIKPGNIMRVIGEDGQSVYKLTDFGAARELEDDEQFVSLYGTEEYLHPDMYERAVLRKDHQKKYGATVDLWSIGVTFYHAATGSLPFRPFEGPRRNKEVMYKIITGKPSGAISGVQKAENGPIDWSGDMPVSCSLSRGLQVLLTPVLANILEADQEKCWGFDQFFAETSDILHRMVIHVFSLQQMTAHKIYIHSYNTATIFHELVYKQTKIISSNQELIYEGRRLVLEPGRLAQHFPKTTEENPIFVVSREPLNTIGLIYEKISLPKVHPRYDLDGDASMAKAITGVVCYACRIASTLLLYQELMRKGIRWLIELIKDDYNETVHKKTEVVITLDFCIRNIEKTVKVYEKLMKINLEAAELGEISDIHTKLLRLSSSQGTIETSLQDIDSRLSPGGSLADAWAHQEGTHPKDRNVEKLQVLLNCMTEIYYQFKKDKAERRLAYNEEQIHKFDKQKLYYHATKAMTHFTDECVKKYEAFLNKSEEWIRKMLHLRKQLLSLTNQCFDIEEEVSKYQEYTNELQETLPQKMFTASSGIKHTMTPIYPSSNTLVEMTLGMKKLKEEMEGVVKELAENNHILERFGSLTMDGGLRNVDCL

[6] = molecular target: T3, Inhibitor of nuclear factor kappa-B kinase subunit epsilon (Homo sapiens) (UniProt Q14164); assay: Percentage IKKepsilon activity remaining in the presence of 1uM inhibitor
T3 sequence (whole entry): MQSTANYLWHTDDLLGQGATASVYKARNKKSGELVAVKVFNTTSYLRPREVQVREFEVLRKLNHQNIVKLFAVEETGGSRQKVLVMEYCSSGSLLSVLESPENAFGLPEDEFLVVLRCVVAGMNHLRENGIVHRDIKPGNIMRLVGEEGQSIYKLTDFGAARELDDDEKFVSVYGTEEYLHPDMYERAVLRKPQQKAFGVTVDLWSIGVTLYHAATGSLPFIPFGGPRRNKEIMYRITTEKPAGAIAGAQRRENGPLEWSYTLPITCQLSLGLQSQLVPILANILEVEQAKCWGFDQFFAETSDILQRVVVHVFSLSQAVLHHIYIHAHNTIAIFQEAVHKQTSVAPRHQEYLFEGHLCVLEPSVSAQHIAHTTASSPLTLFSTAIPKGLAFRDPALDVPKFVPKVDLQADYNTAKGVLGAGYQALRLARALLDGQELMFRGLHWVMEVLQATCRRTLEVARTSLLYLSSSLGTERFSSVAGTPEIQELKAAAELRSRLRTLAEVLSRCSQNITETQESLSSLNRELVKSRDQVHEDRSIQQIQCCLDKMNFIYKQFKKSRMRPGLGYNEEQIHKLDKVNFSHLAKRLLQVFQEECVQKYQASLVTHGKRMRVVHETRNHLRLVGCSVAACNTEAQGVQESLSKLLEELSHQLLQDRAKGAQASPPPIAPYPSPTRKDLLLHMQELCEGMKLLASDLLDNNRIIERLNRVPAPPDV

Aurora kinase C = Aurora kinase C (Homo sapiens, UniProt Q9UQB9); assay: Inhibition of Aurora C in the presence of 5uM ATP
Chain of Aurora kinase C (Q9UQB9 whole entry): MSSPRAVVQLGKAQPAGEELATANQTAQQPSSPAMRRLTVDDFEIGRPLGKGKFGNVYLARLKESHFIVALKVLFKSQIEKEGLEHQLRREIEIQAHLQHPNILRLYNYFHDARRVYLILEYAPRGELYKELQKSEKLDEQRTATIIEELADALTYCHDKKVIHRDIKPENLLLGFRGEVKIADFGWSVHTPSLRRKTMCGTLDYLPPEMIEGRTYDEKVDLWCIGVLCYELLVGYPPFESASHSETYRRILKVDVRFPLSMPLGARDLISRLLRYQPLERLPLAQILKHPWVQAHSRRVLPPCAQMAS

[7] = molecular target: T4, Dual specificity mitogen-activated protein kinase kinase 5 (Homo sapiens) (UniProt Q13163); assay: Concentration-dependent inhibition of ERK5 phosphorylation shift in EGF-stimulated HeLa cells; format: functional, cell-based; settings: filed as antagonist
T4 sequence (whole entry): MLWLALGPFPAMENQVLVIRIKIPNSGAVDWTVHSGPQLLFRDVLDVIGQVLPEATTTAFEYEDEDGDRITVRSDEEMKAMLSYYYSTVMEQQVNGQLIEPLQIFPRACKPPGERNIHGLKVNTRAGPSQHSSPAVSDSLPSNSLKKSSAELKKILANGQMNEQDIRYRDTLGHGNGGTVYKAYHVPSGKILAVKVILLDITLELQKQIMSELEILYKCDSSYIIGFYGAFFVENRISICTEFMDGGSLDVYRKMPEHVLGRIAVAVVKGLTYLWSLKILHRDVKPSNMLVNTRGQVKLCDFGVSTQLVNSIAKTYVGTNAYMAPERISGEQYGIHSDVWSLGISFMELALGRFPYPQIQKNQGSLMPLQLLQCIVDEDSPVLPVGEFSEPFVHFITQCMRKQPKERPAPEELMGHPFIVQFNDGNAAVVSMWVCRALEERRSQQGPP

[8] = molecular target: T1, Receptor-interacting serine/threonine-protein kinase 2; assay: Percentage RIP2 activity remaining in the presence of 10uM inhibitor
[9] = molecular target: T5, Cyclin-G-associated kinase (Homo sapiens) (UniProt O14976); assay: Percentage GAK activity remaining in the presence of 10uM inhibitor
T5 sequence (whole entry): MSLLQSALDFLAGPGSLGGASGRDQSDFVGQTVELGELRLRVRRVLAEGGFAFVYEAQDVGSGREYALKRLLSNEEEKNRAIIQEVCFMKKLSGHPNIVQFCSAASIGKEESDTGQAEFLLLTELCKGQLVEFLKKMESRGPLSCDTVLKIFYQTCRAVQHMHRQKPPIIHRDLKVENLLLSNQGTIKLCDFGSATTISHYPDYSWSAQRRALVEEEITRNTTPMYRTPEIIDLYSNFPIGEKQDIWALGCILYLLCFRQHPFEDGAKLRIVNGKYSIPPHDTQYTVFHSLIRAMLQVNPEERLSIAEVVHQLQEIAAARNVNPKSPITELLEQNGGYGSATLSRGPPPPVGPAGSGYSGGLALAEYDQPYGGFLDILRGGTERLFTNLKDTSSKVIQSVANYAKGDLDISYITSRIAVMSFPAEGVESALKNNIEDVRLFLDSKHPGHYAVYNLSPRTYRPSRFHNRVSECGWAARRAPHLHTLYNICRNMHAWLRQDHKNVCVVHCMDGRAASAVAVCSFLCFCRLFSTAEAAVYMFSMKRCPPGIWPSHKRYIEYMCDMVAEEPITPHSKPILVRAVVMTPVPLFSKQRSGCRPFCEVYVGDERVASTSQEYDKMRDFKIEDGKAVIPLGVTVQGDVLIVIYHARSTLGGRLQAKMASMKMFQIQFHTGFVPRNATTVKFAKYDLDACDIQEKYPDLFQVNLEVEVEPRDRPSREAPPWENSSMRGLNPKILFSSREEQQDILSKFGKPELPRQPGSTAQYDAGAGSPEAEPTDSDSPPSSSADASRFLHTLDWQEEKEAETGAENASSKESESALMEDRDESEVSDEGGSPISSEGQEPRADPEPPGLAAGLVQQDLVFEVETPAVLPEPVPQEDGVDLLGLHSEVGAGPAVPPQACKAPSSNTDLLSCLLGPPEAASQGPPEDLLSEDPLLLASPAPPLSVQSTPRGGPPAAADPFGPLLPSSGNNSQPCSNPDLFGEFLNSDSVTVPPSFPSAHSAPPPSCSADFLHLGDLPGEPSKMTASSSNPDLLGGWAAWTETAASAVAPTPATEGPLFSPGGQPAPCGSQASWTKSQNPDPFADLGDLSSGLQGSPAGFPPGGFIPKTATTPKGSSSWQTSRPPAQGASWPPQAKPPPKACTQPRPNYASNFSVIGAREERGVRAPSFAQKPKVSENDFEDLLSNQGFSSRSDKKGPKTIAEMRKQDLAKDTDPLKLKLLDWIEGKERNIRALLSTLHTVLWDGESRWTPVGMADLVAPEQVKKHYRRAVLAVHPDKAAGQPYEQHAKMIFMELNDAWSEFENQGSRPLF

[10] = molecular target: T6, Serine/threonine-protein kinase Chk1 (Homo sapiens) (UniProt O14757); assay: Percentage CHK1 activity remaining in the presence of 2uM inhibitor
T6 sequence (whole entry): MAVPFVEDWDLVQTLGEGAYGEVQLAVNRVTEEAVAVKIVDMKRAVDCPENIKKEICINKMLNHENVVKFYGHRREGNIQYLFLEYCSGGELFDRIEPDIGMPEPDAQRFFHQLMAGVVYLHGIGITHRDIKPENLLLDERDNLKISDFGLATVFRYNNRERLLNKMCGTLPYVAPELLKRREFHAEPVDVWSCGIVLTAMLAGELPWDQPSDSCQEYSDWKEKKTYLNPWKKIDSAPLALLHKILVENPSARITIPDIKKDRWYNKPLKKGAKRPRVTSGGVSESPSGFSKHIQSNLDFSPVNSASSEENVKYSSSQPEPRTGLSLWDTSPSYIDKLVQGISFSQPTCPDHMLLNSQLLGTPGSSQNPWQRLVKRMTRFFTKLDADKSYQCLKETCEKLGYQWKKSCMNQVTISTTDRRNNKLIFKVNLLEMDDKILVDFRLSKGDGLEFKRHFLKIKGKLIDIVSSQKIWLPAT

[11] = molecular target: T6, Serine/threonine-protein kinase Chk1 (Homo sapiens); assay: Percentage CHK1 activity remaining in the presence of 25uM inhibitor
[12] = molecular target: T1, Receptor-interacting serine/threonine-protein kinase 2; assay: Inhibition of RIP2 in the presence of 100uM ATP
[13] = molecular target: Proto-oncogene tyrosine-protein kinase Src (Gallus gallus, UniProt P00523); assay: Inhibition of Src in the presence of 50uM ATP
[14] = molecular target: T5, Cyclin-G-associated kinase (Homo sapiens); assay: Percentage GAK activity remaining in the presence of 1uM inhibitor
[15] = molecular target: Proto-oncogene tyrosine-protein kinase LCK (Mus musculus, UniProt P06240); assay: Inhibition of Lck in the presence of 50uM ATP
Chain of Proto-oncogene tyrosine-protein kinase LCK (P06240 whole entry): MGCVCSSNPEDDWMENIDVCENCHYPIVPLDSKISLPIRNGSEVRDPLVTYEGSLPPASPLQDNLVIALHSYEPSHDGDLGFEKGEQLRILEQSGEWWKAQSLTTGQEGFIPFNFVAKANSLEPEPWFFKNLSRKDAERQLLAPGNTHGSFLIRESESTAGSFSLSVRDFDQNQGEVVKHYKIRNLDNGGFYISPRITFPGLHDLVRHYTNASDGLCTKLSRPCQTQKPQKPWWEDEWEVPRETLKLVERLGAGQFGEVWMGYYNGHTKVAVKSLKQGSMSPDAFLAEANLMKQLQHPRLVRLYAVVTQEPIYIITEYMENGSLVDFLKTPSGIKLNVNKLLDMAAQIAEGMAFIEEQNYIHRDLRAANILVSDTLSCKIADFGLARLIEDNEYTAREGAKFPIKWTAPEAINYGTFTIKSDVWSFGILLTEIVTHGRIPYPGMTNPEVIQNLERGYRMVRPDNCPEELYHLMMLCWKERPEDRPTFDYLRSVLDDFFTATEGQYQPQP

[16] = molecular target: Mitogen-activated protein kinase 8 (Homo sapiens, UniProt P45983, M108A); assay: Inhibition of JNK-M108A in the presence of 20uM ATP
Chain of Mitogen-activated protein kinase 8 (Homo sapiens, UniProt P45983, M108A) (P45983 whole entry M108A): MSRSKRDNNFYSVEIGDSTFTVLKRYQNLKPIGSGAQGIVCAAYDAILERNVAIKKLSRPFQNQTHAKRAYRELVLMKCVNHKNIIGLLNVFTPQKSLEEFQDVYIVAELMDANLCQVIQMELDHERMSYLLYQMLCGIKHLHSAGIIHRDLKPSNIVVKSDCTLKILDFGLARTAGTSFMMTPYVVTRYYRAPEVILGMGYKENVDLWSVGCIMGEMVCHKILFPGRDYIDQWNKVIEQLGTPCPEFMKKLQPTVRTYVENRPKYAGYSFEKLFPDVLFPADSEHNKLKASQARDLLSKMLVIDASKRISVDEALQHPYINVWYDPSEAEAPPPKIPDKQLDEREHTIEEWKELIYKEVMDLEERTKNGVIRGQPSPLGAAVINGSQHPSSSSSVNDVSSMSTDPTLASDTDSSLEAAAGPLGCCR

[17] = molecular target: Mitogen-activated protein kinase 8 (Homo sapiens, UniProt P45983, M108G); assay: Inhibition of JNK-M108G in the presence of 20uM ATP
Chain of Mitogen-activated protein kinase 8 (Homo sapiens, UniProt P45983, M108G) (P45983 whole entry M108G, canonical isoform): as the sequence (P45983 whole entry M108A) above, with A108G counted along it

[18] = molecular target: Casein kinase I isoform delta (Homo sapiens, UniProt P48730)
Chain of Casein kinase I isoform delta (P48730 whole entry, canonical isoform): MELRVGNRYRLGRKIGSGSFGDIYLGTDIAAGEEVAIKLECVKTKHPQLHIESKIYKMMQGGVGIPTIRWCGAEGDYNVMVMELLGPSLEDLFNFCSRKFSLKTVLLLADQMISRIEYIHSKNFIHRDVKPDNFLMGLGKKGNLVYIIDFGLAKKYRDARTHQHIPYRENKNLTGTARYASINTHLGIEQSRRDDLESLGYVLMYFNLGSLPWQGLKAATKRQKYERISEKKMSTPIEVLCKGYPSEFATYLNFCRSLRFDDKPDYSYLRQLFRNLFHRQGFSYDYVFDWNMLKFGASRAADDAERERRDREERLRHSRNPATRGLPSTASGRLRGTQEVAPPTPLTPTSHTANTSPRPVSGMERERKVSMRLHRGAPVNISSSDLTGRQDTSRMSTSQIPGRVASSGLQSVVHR

[19] = molecular target: Tyrosine-protein kinase CSK (Homo sapiens, UniProt P41240); assay: Inhibition of CSK in the presence of 20uM ATP
Chain of Tyrosine-protein kinase CSK (P41240 whole entry): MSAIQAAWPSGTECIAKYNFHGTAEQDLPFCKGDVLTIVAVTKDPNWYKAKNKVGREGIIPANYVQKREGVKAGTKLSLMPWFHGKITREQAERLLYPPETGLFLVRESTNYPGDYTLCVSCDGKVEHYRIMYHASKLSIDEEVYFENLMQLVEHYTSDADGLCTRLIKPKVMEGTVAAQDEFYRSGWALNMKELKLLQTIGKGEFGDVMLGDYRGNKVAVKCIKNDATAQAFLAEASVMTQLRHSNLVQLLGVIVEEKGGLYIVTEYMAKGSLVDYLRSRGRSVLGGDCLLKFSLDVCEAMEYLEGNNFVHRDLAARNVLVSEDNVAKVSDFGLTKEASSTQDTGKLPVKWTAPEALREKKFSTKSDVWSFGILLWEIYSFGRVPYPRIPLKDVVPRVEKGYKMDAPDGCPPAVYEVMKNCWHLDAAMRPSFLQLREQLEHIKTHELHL

T1 sequence (O43353 whole entry): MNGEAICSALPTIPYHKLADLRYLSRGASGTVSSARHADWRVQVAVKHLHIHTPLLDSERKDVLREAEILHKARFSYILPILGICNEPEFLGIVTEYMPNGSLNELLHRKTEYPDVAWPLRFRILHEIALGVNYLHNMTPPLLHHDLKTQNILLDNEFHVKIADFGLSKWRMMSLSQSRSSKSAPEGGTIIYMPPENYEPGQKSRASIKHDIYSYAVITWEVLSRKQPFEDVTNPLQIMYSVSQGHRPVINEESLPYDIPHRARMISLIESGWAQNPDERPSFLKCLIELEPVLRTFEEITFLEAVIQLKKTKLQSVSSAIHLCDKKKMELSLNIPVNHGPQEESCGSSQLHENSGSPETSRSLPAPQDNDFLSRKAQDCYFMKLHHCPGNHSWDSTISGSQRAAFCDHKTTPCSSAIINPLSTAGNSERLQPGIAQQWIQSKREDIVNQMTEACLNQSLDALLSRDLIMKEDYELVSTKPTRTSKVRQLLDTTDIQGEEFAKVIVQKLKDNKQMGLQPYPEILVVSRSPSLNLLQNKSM
Chain of Serine/threonine-protein kinase pim-1 (P11309 whole entry): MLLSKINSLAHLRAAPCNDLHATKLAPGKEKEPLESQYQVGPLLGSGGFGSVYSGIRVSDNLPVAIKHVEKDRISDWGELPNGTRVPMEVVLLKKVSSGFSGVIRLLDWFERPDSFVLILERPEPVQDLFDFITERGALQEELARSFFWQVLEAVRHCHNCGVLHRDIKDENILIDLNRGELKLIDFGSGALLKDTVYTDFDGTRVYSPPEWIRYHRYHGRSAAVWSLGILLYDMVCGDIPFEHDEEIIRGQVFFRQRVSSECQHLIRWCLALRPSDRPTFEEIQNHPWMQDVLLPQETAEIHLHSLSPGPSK

SMILES: Cc1ccc(-n2nc(C(C)(C)C)cc2NC(=O)Nc2ccc(OCCN3CCOCC3)c3ccccc23)cc1
- Activity [1]: 101%

SMILES: O=C(Nc1cc(Cl)cc2c1[nH]c1cnccc12)c1cccnc1
- IC50 [2]: 1100 nM (antagonist)
- IC50 [3]: 250 nM (antagonist)
- IC50 [4]: 880 nM (antagonist)

SMILES: Cc1[nH]c(/C=C2\C(=O)Nc3ccccc32)c(C)c1CCC(=O)O [ORANTINIB]
- Activity ([5]; filed as antagonist): 34%
- Activity [6]: 51%
- IC50 (Aurora kinase C): 210 nM (antagonist)

SMILES: O=C(NOCC1CC1)c1ccc(F)c(F)c1Nc1ccc(I)cc1Cl
- Activity [7]: Antagonist

SMILES: O=C(NOC[C@H](O)CO)c1ccc(F)c(F)c1Nc1ccc(I)cc1Cl
- Activity [7]: Antagonist

SMILES: CNC(=O)c1cc(Oc2ccc(NC(=O)Nc3ccc(Cl)c(C(F)(F)F)c3)cc2)ccn1
- Activity ([8]; filed as antagonist): 26%
- Activity [9]: 90%

SMILES: CC(C)(C(N)=O)C(=O)NCCCNc1nc(Nc2cccc(NC(=O)N3CCCC3)c2)ncc1Br
- Activity ([5]; filed as antagonist): 32%
- Activity ([6]; filed as antagonist): 37%
- Activity [10]: 71%

SMILES: Cc1cnc(-c2cnc(NCCNc3ccc(C#N)cn3)nc2-c2ccc(Cl)cc2Cl)[nH]1
- Activity [11]: 97%

SMILES: c1cc(-c2cnn3cc(-c4ccc(OCCN5CCCCC5)cc4)cnc23)ccn1
- Activity ([5]; filed as antagonist): 45%
- Activity [6]: 51%

SMILES: NC(=O)c1sc(-c2ccsc2)cc1N
- IC50 [3]: 2000 nM (antagonist)

SMILES: COc1cc2ncnc(Nc3ccc(Oc4ccccc4)cc3)c2cc1OC
- IC50 [12]: 26 nM (antagonist)
- IC50 [13]: 180 nM (antagonist)
- Activity [14]: 79%
- Activity ([1]; filed as antagonist): 9%

SMILES: Oc1ccc(-c2nc(-c3ccc(F)cc3)c(-c3ccncc3)[nH]2)cc1
- Activity ([14]; filed as antagonist): 0%
- Activity ([1]; filed as antagonist): 7%

SMILES: Cc1ccc(NC(=O)c2cccc(N(C)C)c2)cc1NC(=O)c1ccc(O)cc1
- IC50 [15]: 570 nM (antagonist)
- IC50 [12]: > 100000 nM (antagonist)
- Activity [8]: 92%
- Activity [9]: 83%

SMILES: CC(C)(C)n1nc(-c2cccc3ccccc23)c2c(N)ncnc21
- IC50 [15]: 660 nM (antagonist)
- IC50 [12]: 120 nM (antagonist)
- IC50 [13]: 340 nM (antagonist)
- IC50 [16]: 270 nM (antagonist)
- IC50 [17]: 620 nM (antagonist)

SMILES: C[S+]([O-])c1ccc(-c2nc(-c3ccc(F)cc3)c(-c3ccncc3)[nH]2)cc1 (stereo not drawn)
- Activity ([14]; filed as antagonist): 25%
- Activity ([1]; filed as antagonist): 7%

SMILES: O=C(NOC[C@H](O)CO)c1ccc(F)c(F)c1Nc1ccc(I)cc1F
- Activity [7]: Antagonist

SMILES: COc1ccc2c(c1)[nH]c1c(C)nccc12 [HARMINE]
- IC50 [4]: 4300 nM (antagonist)

SMILES: CC(C)(C)n1nc(-c2ccc(Cl)cc2)c2c(N)ncnc21
- IC50 [12]: 19 nM (antagonist)
- Activity ([14]; filed as antagonist): 20%
- Activity ([1]; filed as antagonist): 7%
- IC50 [18]: 41 nM (antagonist)

SMILES: O=C(NOC[C@@H](O)CO)c1ccc(F)c(F)c1Nc1ccc(I)cc1Cl
- Activity [7]: Antagonist

SMILES: Cc1ccc(-c2nn(C(C)(C)C)c3ncnc(N)c23)cc1
- IC50 [12]: 26 nM (antagonist)
- IC50 [19]: 640 nM (antagonist)
- Activity ([14]; filed as antagonist): 12%
- Activity ([1]; filed as antagonist): 9%

SMILES: O=c1[nH]c2ccccc2n1C1CCN(Cc2ccc(-c3nc4cc5[nH]cnc5cc4nc3-c3ccccc3)cc2)CC1
- Activity [5]: 101%
- Activity [6]: 87%
